{
  "source": "patent US8697385B1",
  "about": "“Protein controlling synthesis of collagen and associated methods” (Florida State University Research Foundation, Inc., priority 2009, dated 2014)",
  "key": {"[1]": {"system": "lung fibroblasts", "assay": "Apoptosis of primary lung fibroblasts", "type": "cell-based", "details": "lung fibroblasts after ML-7 treatment; without treatment 2.2%", "description": "To assess the role of nonmuscle myosin in collagen synthesis, we disrupted nonmuscle myosin filaments in two different cell types: primary human lung fibroblasts and primary scleroderma skin fibroblasts. These cells are responsible for lung and skin fibrosis. […] To assess the effect of ML-7 on collagen protein synthesis and secretion, we analyzed the levels of collagen α1(I) and α2(I) polypeptides in the intracellularly space and in the medium using Western blot analysis and chain-specific antibodies.^12,15,31-33 ML-7 treatment profoundly affected the secretion of type I collagen, but the effect differed in the two types of primary fibroblasts. […] To assess if the secreted α1(I) polypeptides had been secreted as disulfide-bonded homotrimers, we performed Western blot analysis under nonreducing conditions (FIG. 3d). […] However, since α2(I) polypeptide was absent in the cell medium of ML-7-treated cells, the bands must represent disulfide-bonded collagen α1(I) chains. The α2(I) antibody could not recognize the polypeptide under nonreducing conditions, so we could not directly test its presence in S—S bonded collagen. Since there are reports that ML-7 can cause apoptosis of epithelial cells, we tested if ML-7 caused apoptosis of the primary fibroblasts. […] Therefore, we concluded that increased apoptosis is not responsible for the observed effects of ML-7. […]"}, "[2]": {"system": "primary scleroderma skin fibroblasts", "assay": "Western blot analysis of cellular and medium collagen polypeptides, scleroderma fibroblasts", "type": "cell-based, human", "details": "16 h, ML-7 40 μM, blebbistatin 100 μM", "method": "ML-7, blebbistatin, cytochalasin B, puromycin, and cycloheximide were purchased from Sigma. ML-7 was used at 40 μM, blebbistatin was used at 100 μM, and cytochalasin B was used at 20 μM. Cells were incubated with the drugs for 16 h before analysis. Puromycin (200 μg/ml) and cycloheximide (100 μg/ml) were added to the cells for 2 h. Human lung fibroblasts have been described previously.16 Scleroderma fibroblasts were purchased from the European Collection of Cell Cultures (cell line BM0070) and derived from the skin of a scleroderma patient. MEFs were derived from knock-in mice in which the 5′SL of the collagen α1(I) gene has been mutated (Parsons et al., submitted). Several independent cell isolates were used throughout the study. All cells were cultured in Dulbecco's modified Eagle's medium supplemented with 10% fetal bovine serum for up to 10 passages. Plasmid constructs and adenovirus preparation. The HA-tagged LARP6 clone and the deletion mutants have been described previously.^16 Adenoviruses were constructed by recloning of the constructs into the pAdCMVTRACK vector, followed by recombination with the pAdEasy vector and amplification, as described previously.^48 Expression of each construct was verified by Western blot analysis. The viruses made express both the full-size test protein and the green fluorescent protein (GFP), which is encoded by an independent transcription unit.^48 Expression of GFP served as control for viral transduction. RT-PCR analysis Total cellular RNA was isolated using an RNA isolation kit (Sigma). RT-PCRs were performed with 100 ng of total RNA or using rTth reverse transcriptase (Boca Scientific, Boca Raton, Fla.). [^32P]dCTP was included in the PCR step to label the products, which were resolved on sequencing gels, as described previously.^8,31,49,50 When RNA from polysomal fractions was analyzed, an equal aliquot of each fraction was used. The number of cycles was adjusted to within the linear range of the reaction. The primers used for RT-PCR were as follows: h-collagen α1(I), 5′ primer […] (SEQ ID NO:3) and 3′ primer […] (SEQ ID NO:4); h-collagen α2(I), 5′ primer […] (SEQ ID NO:5) and 3′ primer […] (SEQ ID NO:6).\nProtein concentration was estimated by the Bradford assay, with bovine serum albumin as standard.^51 Western blot analyses of cellular proteins were performed using 50 μg of protein. For Western blot analysis of secreted proteins, equal numbers of cells were seeded, serum-free medium was added to the cells, and incubation continued for 3 h. The medium was collected, and an aliquot was analyzed directly by Western blot analysis. Use of serum free medium in collecting secreted proteins is essential because fetal calf serum contains substantial amounts of collagen and fibronectin.^15,31 For immunostaining, cells were seeded onto glass coverslips. After treatment, the cells were fixed with 4% paraformaldehyde for 30 min at room temperature and permeabilized with 0.5% Triton X-100 in phosphatebuffered saline (PBS) for 10 min. After the cells had been blocked with 10% goat serum/5% bovine serum albumin in PBS for 1 h at room temperature, they were incubated with primary antibody overnight at 4° C., washed, and visualized with AlexaFluor594-conjugated or Cy-2-conjugated secondary antibodies. The cells were mounted using VECTASHIELD mounting medium containing […], 6-diamidino-2-phenylindole (Vector Laboratories), and images were taken by a Leica TCS SP2 AOBS laser confocal microscope equipped with a Chameleon Ti: Sapphire multiphoton laser. Optical sections were processed with LCSLite software.\nTo assess the role of nonmuscle myosin in collagen synthesis, we disrupted nonmuscle myosin filaments in two different cell types: primary human lung fibroblasts and primary scleroderma skin fibroblasts. These cells are responsible for lung and skin fibrosis. […]"}},
  "data": [
    {"smiles": "O=S(=O)(c1cccc2c(I)cccc12)N1CCCNCC1", "note": "[ML-7]", "values": [
      {"measurement": "percentage of apoptotic cells", "setting": "[1]", "value": 4.2, "unit": "%"},
      {"measurement": "intracellular level of collagen α1(I) polypeptide", "setting": "[2]", "value": "not changed"},
      {"measurement": "intracellular level of collagen α2(I) polypeptide", "setting": "[2]", "value": "reduced"},
      {"measurement": "secretion of collagen α1(I) polypeptide into the medium", "setting": "[2]; cytochalasin B 20 μM", "value": "barely detectable"},
      {"measurement": "secretion of collagen α2(I) polypeptide into the medium", "setting": "[2]; cytochalasin B 20 μM", "value": "absent"},
      {"measurement": "secretion/expression of fibronectin", "setting": "[2]; cytochalasin B 20 μM", "value": "not affected"}
    ]}
  ]
}
